In paper PMC5658702, “Lysine acetylome profiling uncovers novel histone deacetylase substrate proteins in Arabidopsis” (Molecular Systems Biology, 2017) one finds inhibition data, which are given here for two molecules.

Numbering of substitutions follows the chain as printed.

Common to all, as to type: biochemical
In experiment [1] the target is T1, HDA14 (6xHis-HDA14) (Arabidopsis thaliana, UniProt Q941D6).
T1 construct: lacks first 45 aa (predicted signal peptide); N-terminal 6xHis tag (pEXP-5-NT/TOPO); E. coli BL21(DE3); apoenzyme reloaded with Zn2+ or Co2+
T1 sequence (Q941D6 46-423): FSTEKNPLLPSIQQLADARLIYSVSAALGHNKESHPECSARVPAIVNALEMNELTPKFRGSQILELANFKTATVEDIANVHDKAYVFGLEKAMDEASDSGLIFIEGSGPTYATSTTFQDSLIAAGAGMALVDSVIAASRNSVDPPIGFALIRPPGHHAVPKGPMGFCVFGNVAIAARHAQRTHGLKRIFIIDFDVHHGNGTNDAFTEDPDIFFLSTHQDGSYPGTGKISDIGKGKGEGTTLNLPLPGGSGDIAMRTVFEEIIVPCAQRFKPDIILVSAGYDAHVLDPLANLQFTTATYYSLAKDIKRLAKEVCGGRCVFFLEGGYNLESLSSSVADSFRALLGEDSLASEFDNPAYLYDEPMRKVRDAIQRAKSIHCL
Description: colorimetric deacetylase assay, acetylated p53 peptide p53-5,2-ANB, trypsin-coupled, […] nm.

The target in experiment [2] is T2, RCA-β1 (RCAβ1; 6x-HisRCAβ1) (Arabidopsis thaliana, UniProt F4IVZ7, K438R).
T2 construct: N-terminal 6xHis tag, pCDFDuet-1, E. coli Rosetta-gami
T2 sequence (F4IVZ7 59-441 K438R): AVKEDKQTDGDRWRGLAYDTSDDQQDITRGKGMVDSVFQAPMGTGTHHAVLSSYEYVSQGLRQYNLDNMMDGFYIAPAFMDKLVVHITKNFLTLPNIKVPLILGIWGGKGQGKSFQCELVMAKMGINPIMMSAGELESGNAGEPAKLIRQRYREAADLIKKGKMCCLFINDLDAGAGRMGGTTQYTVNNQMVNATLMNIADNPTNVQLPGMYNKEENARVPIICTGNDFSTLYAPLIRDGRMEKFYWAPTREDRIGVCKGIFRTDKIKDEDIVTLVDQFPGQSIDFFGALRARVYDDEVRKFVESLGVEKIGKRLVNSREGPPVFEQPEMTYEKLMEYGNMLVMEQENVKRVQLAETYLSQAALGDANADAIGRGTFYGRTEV
Description: ATPase activity, KinaseGlo Max luminescent ATP consumption assay. Particulars: read-out: % inhibition at 55 uM ADP.

Experiment [3] deals with T3, RCA-β1 (RCAβ1; 6x-HisRCAβ1) (Arabidopsis thaliana, UniProt F4IVZ7, K438Q).
T3 construct: N-terminal 6xHis tag, pCDFDuet-1, E. coli Rosetta-gami
T3 sequence (F4IVZ7 59-441 K438Q): T2 sequence (F4IVZ7 59-441 K438R) with R380Q
The experiment is described as above. As to conditions: read-out: % inhibition at 55 uM ADP.

In experiment [4] the target is T4, RCA-β1 (RCAβ1; 6x-HisRCAβ1) (Arabidopsis thaliana, UniProt F4IVZ7).
T4 construct: N-terminal 6xHis tag, pCDFDuet-1, E. coli Rosetta-gami
T4 sequence (F4IVZ7 59-441): T2 sequence (F4IVZ7 59-441 K438R) with R380K
Described as above. Particulars: read-out: % inhibition at 55 uM ADP.

The molecule `CC(/C=C/C(=O)NO)=C\[C@@H](C)C(=O)c1ccc(N(C)C)cc1` [trichostatin A] registered an inhibition at 5 µM in experiment [1] of 80%.

Regarding `Nc1ncnc2c1ncn2[C@@H]1O[C@H](COP(=O)(O)OP(=O)(O)O)[C@@H](O)[C@H]1O` [ADP], the inhibition at 55 µM in experiment [2] was ~30%; in experiment [3], ~8%; in experiment [4] it was ~19%.
